Patent US20240327397A1, “Pesticidally Active Fused Bicyclic Heteroaromatic Compounds” (SYNGENTA CROP PROTECTION AG, priority 2021, published 2024)

How the values were obtained:
Format in all cases: in vivo
[1] = test system: Chilo suppressalis (Striped Rice Stemborer); assay: Example B1: Chilo suppressalis, artificial diet in 24-well plates, L2 larvae; details: 144 h, application rate 200 ppm, 6 days after infestation, versus untreated, read-out: control (at least one of mortality, anti-feedant effect, growth inhibition)
Procedure: Example B1: Chilo suppressalis (Striped Rice Stemborer)
24-well microtiter plates with artificial diet were treated with aqueous test solutions prepared from 10'000 ppm DMSO stock solutions by pipetting. After drying, the plates were infested with L2 larvae (6-8 per well). The samples were assessed for mortality, anti-feeding effect, and growth inhibition in comparison to untreated samples 6 days after infestation. Control of Chilo suppressalis by a test sample is given when at least one of the categories mortality, anti-feedant effect, and growth inhibition is higher than the untreated sample.

[2] = test system: Myzus persicae (Green Peach Aphid); assay: Example B7: Myzus persicae, intrinsic activity, sucrose solution under Parafilm; details: 120 h, test rate 12 ppm, 5 days after infestation
Excerpt: Example B7: Myzus persicae (Green Peach Aphid). Intrinsic Activity
Test compounds prepared from 10'000 ppm DMSO stock solutions were applied by pipette into 24-well microtiter plates and mixed with sucrose solution. The plates were closed with a stretched Parafilm. A plastic stencil with 24 holes was placed onto the plate and infested pea seedlings were placed directly on the Parafilm. The infested plate was closed with a gel blotting paper and another plastic stencil and then turned upside down. The samples were assessed for mortality 5 days after infestation.

[3] = test system: Diabrotica Balteata (Corn Root Worm); assay: Example B2: Diabrotica balteata, sprayed maize sprouts on agar, L2 larvae; details: 96 h, application rate 200 ppm, 4 days after infestation, versus untreated, read-out: effect in at least one of the two categories (mortality or growth inhibition)
Procedure: Example B2: Diabrotica Balteata (Corn Root Worm)
Maize sprouts placed onto an agar layer in 24-well microtiter plates were treated with aqueous test solutions prepared from 10'000 ppm DMSO stock solutions by spraying. After drying, the plates were infested with L2 larvae (6 to 10 per well). The samples were assessed for mortality and growth inhibition in comparison to untreated samples 4 days after infestation.

[4] = test system: Spodoptera littoralis (Eqyptian Cotton Leaf Worm); assay: Example B4: Spodoptera littoralis, sprayed cotton leaf discs, L1 larvae; details: foliar, 72 h, application rate 200 ppm, 3 days after infestation, versus untreated, read-out: control (at least one of mortality, anti-feedant effect, growth inhibition)
Procedure: Example B4: Spodoptera littoralis (Eqyptian Cotton Leaf Worm)
Cotton leaf discs were placed onto agar in 24-well microtiter plates and sprayed with aqueous test solutions prepared from 10'000 ppm DMSO stock solutions. After drying the leaf discs were infested with five L1 larvae. The samples were assessed for mortality, anti-feeding effect, and growth inhibition in comparison to untreated samples 3 days after infestation. Control of Spodoptera littoralis by a test sample is given when at least one of the categories mortality, anti-feedant effect, and growth inhibition is higher than the untreated sample.

[5] = test system: Frankliniella occidentalis (Western Flower Thrips); assay: Example B5: Frankliniella occidentalis, feeding/contact activity, sunflower leaf discs; details: foliar, 168 h, application rate 200 ppm, population of mixed ages, 7 days after infestation
Procedure: Example B5: Frankliniella occidentalis (Western Flower Thrips). Feedinq/Contact Activity
Sunflower leaf discs were placed on agar in 24-well microtiter plates and sprayed with aqueous test solutions prepared from 10'000 DMSO stock solutions. After drying the leaf discs were infested with a Frankliniella population of mixed ages. The samples were assessed for mortality 7 days after infestation.

[6] = test system: Plutella xylostella (Diamond Back Moth); assay: Example B3: Plutella xylostella, artificial diet in 24-well plates, eggs; details: 192 h, application rate 200 ppm, 8 days after infestation, versus untreated, read-out: effect in at least one of the two categories (mortality or growth inhibition)
Procedure: Example B3: Plutella xylostella (Diamond Back Moth)
24-well microtiter plates with artificial diet were treated with aqueous test solutions prepared from 10'000 ppm DMSO stock solutions by pipetting. After drying, Plutella eggs were pipetted through a plastic stencil onto a gel blotting paper and the plate was closed with it. The samples were assessed for mortality and growth inhibition in comparison to untreated samples 8 days after infestation.

[7] = test system: Myzus persicae (Green Peach Aphid); assay: Example B6: Myzus persicae, feeding/contact activity, sunflower leaf discs; details: foliar, 144 h, application rate 200 ppm, population of mixed ages, 6 days after infestation
Procedure: Example B6: Myzus persicae (Green Peach Aphid). Feedinq/Contact Activity
Sunflower leaf discs were placed onto agar in a 24-well microtiter plate and sprayed with aqueous test solutions prepared from 10'000 ppm DMSO stock solutions. After drying, the leaf discs were infested with an aphid population of mixed ages. The samples were assessed for mortality 6 days after infestation.

C[C@H](NC1=NS(C)(=O)=Nc2c(Br)cc(Br)cc21)c1ncnn1-c1ncccn1 (stereo partly drawn) [P1, 8,10-dibromo-3-methyl-3-oxo-N-[(1S)-1-(2-pyrimidin-2-yl-1,2,4-triazol-3-yl)ethyl]-3λ^6-thia-2,4-diazabicyclo[4.4.0]deca-1(6),2,4,7,9-pentaen-5-amine]
≥ 80%: percent control (mortality, anti-feedant effect or growth inhibition) at 200 ppm [1] | mortality at 12 ppm [2] | percent effect (mortality or growth inhibition) at 200 ppm [3] | percent control (mortality, anti-feedant effect or growth inhibition) at 200 ppm [4] | mortality at 200 ppm [5] | percent effect (mortality or growth inhibition) at 200 ppm [6]

C[C@H](NC1=NS(C)(=O)=Nc2c(Br)cc(Br)cc21)c1nccnc1-c1cnccn1 (stereo partly drawn) [P10, 8,10-dibromo-3-methyl-3-oxo-N-[(1S)-1-(3-pyrazin-2-ylpyrazin-2-yl)ethyl]-3λ^6-thia-2,4-diazabicyclo[4.4.0]deca-1(6),2,4,7,9-pentaen-5-amine]
≥ 80%: mortality at 200 ppm [7] | percent control (mortality, anti-feedant effect or growth inhibition) at 200 ppm [1] | mortality at 12 ppm [2] | percent effect (mortality or growth inhibition) at 200 ppm [3] | percent control (mortality, anti-feedant effect or growth inhibition) at 200 ppm [4] | mortality at 200 ppm [5] | percent effect (mortality or growth inhibition) at 200 ppm [6]

C[C@H](NC1=NS(C)(=O)=Nc2c(Cl)cc(C(F)(F)F)cc21)c1ncnn1-c1ncccn1 (stereo partly drawn) [P13, 10-chloro-3-methyl-3-oxo-N-[(1S)-1-(2-pyrimidin-2-yl-1,2,4-triazol-3-yl)ethyl]-8-(trifluoromethyl)-3λ^6-thia-2,4-diazabicyclo[4.4.0]deca-1(6),2,4,7,9-pentaen-5-amine]
≥ 80%: mortality at 12 ppm [2] | percent effect (mortality or growth inhibition) at 200 ppm [3] | percent control (mortality, anti-feedant effect or growth inhibition) at 200 ppm [4] | mortality at 200 ppm [5] | percent effect (mortality or growth inhibition) at 200 ppm [6]
